Read-outs that look alike come from different tables or passages of the source.
What was measured:
[1] = tested on: A/California/07/2009 (H1N1); assay: Antiviral activity (drug efficacy evaluation by concentration) against A/California/07/2009 (H1N1); type: cell-based, A type influenza virus; details: Influenza A virus
A/Perth/16/2009 (H3N2) = assay: Antiviral activity (drug efficacy evaluation by concentration) against A/Perth/16/2009 (H3N2); type: cell-based, A type influenza virus; details: Influenza A virus
B/Florida/04/2006 = assay: Antiviral activity (drug efficacy evaluation by concentration) against B/Florida/04/2006; type: cell-based, B type influenza virus
[2] = H1N1, A/California/07/2009 (H1N1), read-out: EC50 A/California/07/2009 (H1N1)
[3] = H3N2, A/Perth/16/2009 (H3N2), read-out: EC50 A/Perth/16/2009 (H3N2)
[4] = read-out: EC50 B/Florida/04/2006, B/Florida/04/2006
[5] = CC50 B/Florida/04/2006, cytotoxicity in the B/Florida/04/2006 assay
[6] = CC50, third EC50/CC50 column pair (c7), beside the EC50 of c6

SMILES | EC50 [1, 2] | EC50 (A/Perth/16/2009 (H3N2); [3]) | EC50 (B/Florida/04/2006; [4]) | CC50 (in vitro; [5]) | EC50 ([1]; H1N1, read-out: EC50) | EC50 (A/Perth/16/2009 (H3N2); H3N2, read-out: EC50) | EC50 (B/Florida/04/2006) | CC50 (in vitro; CC50, beside the EC50 of c2) | CC50 (in vitro; CC50, beside the EC50 of c4) | CC50 (in vitro; [6])
CC(=O)N(Cc1ccccc1-c1ccccc1)c1nnc(Cn2nc(C)c(Br)c2C)o1 [Compound 45, N-([1,1′-biphenyl]-2-ylmethyl)-N-(5-((4-bromo-3,5-dimethyl-1H-pyrazol-1-yl)methyl)-1,3,4-oxadiazol-2-yl)acetamide] | 26.2 µM | 25.8 µM | 23.8 µM | 33.5 µM |  |  |  |  |  | 
Cc1nn(Cc2nnc(S(=O)(=O)Cc3ccccc3-c3ccccc3)o2)c(C)c1Br [Compound 96, 2-(([1,1′-biphenyl]-2-ylmethyl)sulfonyl)-5-((4-bromo-3,5-dimethyl-1H-pyrazol-1-yl)methyl)-1,3,4-oxadiazole] |  |  |  |  | 1.3 µM | 1.3 µM | 1.03 µM | > 50 µM | > 50 µM | > 50 µM
Cc1nn(Cc2nnc(SCc3ccccc3-n3cccc3)o2)c(C)c1Br [Compound 31, 2-((2-(1H-pyrrol-1-yl)benzyl)thio)-5-((4-bromo-3,5-dimethyl-1H-pyrazol-1-yl)methyl)-1,3,4-oxadiazole] | 1.8 µM | 2.3 µM | 3.57 µM | 11.8 µM |  |  |  |  |  | 
Brc1ccc(OCc2nnc(SCc3ccccc3-c3ccccc3)o2)cc1 [Compound 58, 2-(([1,1′-biphenyl]-2-ylmethyl)thio)-5-((4-bromophenoxy)methyl)-1,3,4-oxadiazole] | > 50 µM | 44.3 µM | > 50 µM | > 50 µM |  |  |  |  |  | 
CC(C)c1ccccc1/C=C/c1nnc(Cc2ccc(Br)c(F)c2)o1 [Compound 164, 2-(4-bromo-3-fluorobenzyl)-5-(2-isopropylstyryl)-1,3,4-oxadiazole] |  |  |  |  | 5.16 µM | 4.32 µM | 8.35 µM | > 50 µM | > 50 µM | > 50 µM
CC(C)c1ccccc1CCc1nnc(Cc2cccc(Cl)c2)o1 [Compound 102, 2-(3-chlorobenzyl)-5-(2-isopropylphenethyl)-1,3,4-oxadiazole] |  |  |  |  | 1.7 µM | 1.5 µM | 2.14 µM | 47.7 µM | > 50 µM | > 50 µM
Cc1nn(Cc2nnc(SCc3ccccc3-c3ccccc3)o2)c(C)c1Br [Compound 1, 2-(([1,1′-biphenyl]-2-ylmethyl)thio)-5-((4-bromo-3,5-dimethyl-1H-pyrazol-1-yl)methyl)-1,3,4-oxadiazole] | 0.77 µM | 1.15 µM | 0.98 µM | 41.3 µM |  |  |  |  |  | 
Brc1ccc(Cc2nnc(Cc3cccc4ccccc34)o2)cc1 [Compound 100, 2-(4-bromobenzyl)-5-(naphthalen-1-ylmethyl)-1,3,4-oxadiazole] |  |  |  |  | > 50 µM | 49 µM | > 50 µM | > 50 µM | > 50 µM | > 50 µM
Cc1nc2ccccc2n1Cc1nnc(SCc2ccccc2-c2ccccc2)o1 [Compound 41, 2-(([1,1′-biphenyl]-2-ylmethyl)thio)-5-((2-methyl-1H-benzo[d]imidazol-1-yl)methyl)-1,3,4-oxadiazole] | 0.69 µM | 0.91 µM | 1.21 µM | 19.7 µM |  |  |  |  |  | 
Cc1cc(C)cc(Cc2nnc(/C=C/c3ccccc3C(C)C)o2)c1 [Compound 113, 2-(3,5-dimethylbenzyl)-5-(2-isopropylstyryl)-1,3,4-oxadiazole] |  |  |  |  | 1.37 µM | 1.39 µM | 1.55 µM | 10 µM | 25.5 µM | 40.2 µM
Cc1ccccc1C(C)Cc1nnc(Cc2ccc(Br)cc2)o1 (stereo not shown) [Compound 110, 2-(4-bromobenzyl)-5-(2-(o-tolyl)propyl)-1,3,4-oxadiazole] |  |  |  |  | 32.2 µM | 41.5 µM | 46.7 µM | 46.7 µM | > 50 µM | > 50 µM
Cc1nn(Cc2nnc(/C=C/c3ccccc3C(C)C)o2)c(C)c1Br [Compound 50, (E)-2-((4-bromo-3,5-dimethyl-1H-pyrazol-1-yl)methyl)-5-(2-isopropylstyryl)-1,3,4-oxadiazole] | 18.7 µM | 11.4 µM | 24.5 µM | > 50 µM |  |  |  |  |  | 
CC(c1ccccc1)c1nnc(SCc2ccccc2-c2ccccc2)o1 (stereo not shown) [Compound 73, 2-(([1,1′-biphenyl]-2-ylmethyl)thio)-5-(1-phenylethyl)-1,3,4-oxadiazole] | 17.2 µM | 41.7 µM | > 50 µM | > 50 µM |  |  |  |  |  | 
Clc1cccc(Cc2nnc(SCc3ccccc3-c3ccccc3)o2)c1 [Compound 95, 2-(([1,1′-biphenyl]-2-ylmethyl)thio)-5-(3-chlorobenzyl)-1,3,4-oxadiazole] |  |  |  |  | 12.5 µM | 41.4 µM | 37.6 µM | > 50 µM | > 50 µM | > 50 µM
Cc1cc(C)n(Cc2nnc(SCc3ccccc3-c3ccccc3)o2)n1 [Compound 5, 2-(([1,1′-biphenyl]-2-ylmethyl)thio)-5-((3,5-dimethyl-1H-pyrazol-1-yl)methyl)-1,3,4-oxadiazole] | 8.68 µM | 10.7 µM | 9.49 µM | > 50 µM |  |  |  |  |  | 
Cc1ccccc1CCSc1nnc(Cn2nc(C)c(Br)c2C)o1 [Compound 26, 2-((4-bromo-3,5-dimethyl-1H-pyrazol-1-yl)methyl)-5-((2-methylphenethyl)thio)-1,3,4-oxadiazole] | 31.2 µM | 29.4 µM | 36.2 µM | > 50 µM |  |  |  |  |  | 
Cc1nn(Cc2nnc(SCc3ccccc3C(C)C)o2)c(C)c1Br [Compound 23, 2-((4-bromo-3,5-dimethyl-1H-pyrazol-1-yl)methyl)-5-((2-isopropylbenzyl)thio)-1,3,4-oxadiazole] | 0.6 µM | 1.1 µM | 0.82 µM | 14.2 µM |  |  |  |  |  | 
Cc1nn(CCc2nnc(SCc3ccccc3-c3ccccc3)o2)c(C)c1Br [Compound 49, 2-(([1,1′-biphenyl]-2-ylmethyl)thio)-5-(2-(4-bromo-3,5-dimethyl-1H-pyrazol-1-yl)ethyl)-1,3,4-oxadiazole] | > 50 µM | > 50 µM | > 50 µM | > 50 µM |  |  |  |  |  | 
Cc1nn(Cc2nnc(SCc3ccccc3-c3ccccc3)o2)c(C)c1Cl [Compound 7, 2-(([1,1′-biphenyl]-2-ylmethyl)thio)-5-((4-chloro-3,5-dimethyl-1H-pyrazol-1-yl)methyl)-1,3,4-oxadiazole] | 1.26 µM | 1.89 µM | 1.11 µM | > 50 µM |  |  |  |  |  | 
COC(c1ccccc1)c1nnc(SCc2ccccc2-c2ccccc2)o1 (stereo not shown) [Compound 97, 2-(([1,1′-biphenyl]-2-ylmethyl)thio)-5-(methoxy(phenyl)methyl)-1,3,4-oxadiazole] |  |  |  |  | 4.4 µM | 5.9 µM | 2.53 µM | 6.08 µM | 6.2 µM | 6 µM
CC(C)c1ccc(Cc2nnc(/C=C/c3ccccc3C(C)C)o2)cc1 [Compound 133, 2-(4-isopropylbenzyl)-5-(2-isopropylstyryl)-1,3,4-oxadiazole] |  |  |  |  | 2.66 µM | 1.4 µM | 1.97 µM | > 50 µM | > 50 µM | > 50 µM
Brc1ccc(Cc2nnc(SCc3ccccc3-c3ccccc3)o2)cc1 [Compound 22, 2-(([1,1′-biphenyl]-2-ylmethyl)thio)-5-(4-bromobenzyl)-1,3,4-oxadiazole] | 4.9 µM | 5 µM | 4.88 µM | > 50 µM |  |  |  |  |  | 
c1ccc(-c2ccccc2CSc2nnc(Cc3ccccn3)o2)cc1 [Compound 27, 2-(([1,1′-biphenyl]-2-ylmethyl)thio)-5-(pyridin-2-ylmethyl)-1,3,4-oxadiazole] | 8.7 µM | 6.8 µM | 13.4 µM | > 50 µM |  |  |  |  |  | 
Cc1ccc(Cc2nnc(/C=C/c3ccccc3C(C)C)o2)cc1C [Compound 146, 2-(3,4-dimethylbenzyl)-5-(2-isopropylstyryl)-1,3,4-oxadiazole] |  |  |  |  | 5.27 µM | 3.74 µM | 3.07 µM | 24.1 µM | > 50 µM | > 50 µM
Cc1nn(Cc2nnc(SCc3ccccc3-c3cccnc3)o2)c(C)c1Br [Compound 19, 2-((4-bromo-3,5-dimethyl-1H-pyrazol-1-yl)methyl)-5-((2-(pyridin-3-yl)benzyl)thio)-1,3,4-oxadiazole] | > 50 µM | > 50 µM | > 50 µM | > 50 µM |  |  |  |  |  | 
CC(C)c1ccccc1CCc1nnc(Cc2cccc(Br)c2)o1 [Compound 101, 2-(3-bromobenzyl)-5-(2-isopropylphenethyl)-1,3,4-oxadiazole] |  |  |  |  | 45.3 µM | 45.5 µM | 36.5 µM | > 50 µM | > 50 µM | > 50 µM
Cc1nn(Cc2nnc(SCc3ccccc3)o2)c(C)c1Br [Compound 14, 2-(benzylthio)-5-((4-bromo-3,5-dimethyl-1H-pyrazol-1-yl)methyl)-1,3,4-oxadiazole] | 18 µM | 20.5 µM | 16.4 µM | > 50 µM |  |  |  |  |  | 
Fc1ccc(/C=C/c2nnc(Cc3cncc(Br)c3)o2)c(Cl)c1 [Compound 205, (E)-2-((5-bromopyridin-3-yl)methyl)-5-(2-chloro-4-fluorostyryl)-1,3,4-oxadiazole] |  |  |  |  | 43 µM | 21.6 µM | 34.9 µM | > 50 µM | > 50 µM | > 50 µM
Cc1cc(C)cc(Cc2nnc(CCc3ccccc3C(C)C)o2)c1 [Compound 94, 2-(3,5-dimethylbenzyl)-5-(2-isopropylphenethyl)-1,3,4-oxadiazole] |  |  |  |  | 37.8 µM | 43.4 µM | > 50 µM | > 50 µM | > 50 µM | > 50 µM

— patent US11149033B2, “Heteroaryl compound, enantiomer, diastereomer or pharmaceutically acceptable salt thereof, and antiviral composition containing same as active ingredient” (priority 2016, dated 2021)
